US20250161408A1, “PEPTIDIC INHIBITORS OF AMYLOID SELF- AND CROSS-ASSEMBLY” (TECHNISCHE UNIVERSITÄT MÜNCHEN, priority 2022, published 2025)
Entries after “also recorded” stand apart in the source; their conditions may differ. Values belong to the compound of their own block, whether it stands above or below them. Non-standard residues stand in square brackets, D forms with d. Residues, ends and D or L forms follow the SMILES beside them. NMeF = CN[C@@H](Cc1ccccc1)C(=O)O; NMeV = CN[C@H](C(=O)O)C(C)C; Nle = CCCC[C@H](N)C(=O)O

Columns and labels:
IAPP = target: T1, IAPP (Homo sapiens, UniProt P10997); assay: MTT reduction assay of IAPP-mediated cell damage in RIN5fm cells; assay type: cell-based
T1 construct: made in house; host or cells: chemical synthesis (Fmoc-SPPS), air-oxidised, RP-HPLC purified
T1 sequence (P10997 34-70 limits assumed): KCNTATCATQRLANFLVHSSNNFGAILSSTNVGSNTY
Experimental: Briefly, cells were cultivated and platted in 96-well plates. Aliquots of solutions used for the ThT binding assays (see “ThT binding assays”) were diluted with cell medium at the indicated incubation time points (24 h or 7 days) and added to the cells at the indicated final concentrations. Following incubation with the cells for ˜20 h (37° C., humidified atmosphere, 5% CO2) cell damage was assessed by measuring cellular MTI reduction. IC50 values were determined.

Aβ42 [1] = target: T2, Aβ42 (Homo sapiens, UniProt P05067); assay: cell-based; details: read-out: IC50 (±SD) of inhibitory effects of ACMs on Aβ42-mediated cell damage
T2 construct: the 40(42)-residue peptide Aβ40(42); made in house; host or cells: chemical synthesis (Fmoc-SPPS), monomer isolated by SEC
Experimental: Following incubation with the cells for ˜20 h (37° C., humidified atmosphere, 5% CO2), cell damage was assessed by measuring cellular MTT reduction.
Solutions were aged for 1.5 h (37° C., shaking 500 rpm). Aliquots were diluted with cell medium, incubated with PC12 cells at the indicated final concentrations for ˜20 h and cellular MTT reduction was measured as above.

Aβ42 [2] = target: T2, Aβ42; assay: Fluorescence spectroscopic titration of FITC-Aβ42 with ACMs; details: read-out: app. KD (±SD) of ACM/Aβ42 interactions; N-terminal FITC-labelled Aβ42 5 nM, pH 7.4; means from three binding curves
Experimental: Fluorescence spectroscopic studies were performed with a Jasco FP-6500 fluorescence spectrophotometer. Briefly, excitation was at 492 nm and spectra were measured between 500 and 600 nm. All titrations were performed in freshly made solutions of synthetic N-terminal fluorescently labeled peptide (5 nM) and various amounts of unlabeled peptide in 10 mM sodium phosphate buffer, pH 7.4 (1% HFIP) within 2-5 min following solution preparation. Under these experimental conditions, freshly made solutions of Fluos-IAPP and FITC-Aβ42 (5 nM) consist mostly of monomers and the same was found for Fluos-ACMs (5 nM) (FIG. 13e and data not shown). Apparent binding affinities (app. KDs) were estimated by using 1/1 binding models. However, due to the high self-assembly propensities of involved peptides more complex models might also apply. Determined app. KDs are means (±SD) from three binding curves derived from three independent titration assays.

Aβ42 [3] = target: T2, Aβ42; assay: ThT binding assay of Aβ42 fibrillogenesis (self-assembly, seeding, cross-seeding); assay type: biochemical
Experimental: Aβ42 fibrillogenesis-related studies. […] Peptide incubations were performed in the presence of ThT in 96-well black MTPs (FluoroNunc, Thermo Fisher Scientific). […] Values of seeds or buffer alone were subtracted from the data in self-/cross-seeding assays; all other data shown are raw data except for data in FIG. 27b which were normalized).
Incubations (37° C.) and determination of ThT fluorescence were performed as for all other Aβ42-related studies.

[4] = system: cultured murine BV2 microglia; assay: Phagocytosis of Aβ42 species with or without ACM; assay type: cell-based, mouse; details: 1/1, co-incubation 2 h
Experimental: Briefly, BV2 cells were maintained in GlutaMAX-supplemented RPMI1640 medium containing 10% FBS and 1% penicillin/streptomycin on poly-L-ornithine-coated flasks. For the phagocytosis assay, BV2 cells were seeded into 24-well plates containing coverslips in serum-free RPMI1640-GlutaMAX and further incubated for 24 h (5% CO2, 37° C.) to reach 10000 cells/well. Primary BMDMs were obtained from bone-marrow monocytes isolated from wildtype C57BL/6 mice, plated in 24-well plates at a density of 10000cells/well, and differentiated with L929 cell-conditioned medium (RPMI1640, 10% FBS, 1% penicillin/streptomycin) for 7 days. Thereafter, cells were incubated with aged peptide solutions at 37° C. for 6 h. […]
Following incubation of the cells with the peptides, supernatants were removed and cells on the coverslips were washed 5 times with ice-cold 1×PBS, fixed with 4% paraformaldehyde, washed with 1×PBS, permeabilized with 0.2% Triton-X 100, and rinsed three times with cold 1×PBS. […] Images were acquired using a Leica DMi8 fluorescence microscope. The percentage of cells that had taken up peptides was calculated by dividing the number of BV2 cells or BMDMs that phagocytosed TAMRA-labeled peptide by the total cell count, multiplied by 100. Significance was analyzed by unpaired student's t-test.

proteinase K = assay: Proteinase K (PK) fibril digestion assay with dot blot; details: IAPP-related fibrils; 37° C.; dot blot with anti-fIAPP and anti-Aβ antibodies
Experimental: Solutions made as above but w/o PK were used as controls for 100% undigested fibrils. Solutions were incubated at 37° C. and at indicated time points aliquots were dotted onto nitrocellulose membranes and spots were quickly dried by air. Membranes were washed (TBS-T) and blocked (5% milk in TBS-T, overnight (10° C.)). […] Primary antibodies were combined with goat anti-mouse-POD (1:1000) or donkey anti-rabbit-POD (1:5000); detection was as under “Cross-linking, NuPAGE and WB”.

fIAPP = target: T3, fIAPP (Homo sapiens, UniProt P10997); assay: Dot blot binding of Fluos-peptides to fIAPP; details: Fluos-peptides 0.2 μM
T3 construct: made in house; host or cells: chemical synthesis (Fmoc-SPPS), air-oxidised, RP-HPLC purified
T3 sequence (P10997 34-70 limits assumed): T1 sequence (P10997 34-70 limits assumed)
Experimental: After blocking (5% milk in TBS-T, 2 h, RT) and several washing steps (with TBS-T and ThT buffer), membranes were incubated with N-terminal fluorescein-labeled ACMs (Fluos-ACMs) at 0.2 μM for IAPP-related membranes or 2 μM for Aβ42-related membranes; incubation was overnight (10° C.) in ThT buffer (containing 1% HFIP). To control for fibril autofluorescence, similar membranes were incubated in parallel with buffer only. Bound peptides were visualized using a LAS-400 mini instrument (Fujifilm) equipped with a suitable fluorescence filter.

T2 sequence (P05067 672-713): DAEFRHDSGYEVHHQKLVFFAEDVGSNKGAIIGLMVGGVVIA

Kd (Aβ42 [2]): 0.0145 ± 0.008 µM
Compound: CCCC[C@H](NC(=O)[C@H](CC(=O)O)NC(=O)[C@H](CCC(=O)O)NC(=O)[C@H](C)NC(=O)[C@H](Cc1ccccc1)N(C)C(=O)[C@H](Cc1ccccc1)NC(=O)[C@H](C(C)C)N(C)C(=O)[C@H](CC(C)C)NC(=O)[C@H](CCCCN)NC(=O)[C@@H](N)CCC(N)=O)C(=O)N[C@@H](CCCC)C(=O)N[C@@H](CCCC)C(=O)N[C@@H](CC(N)=O)C(=O)N[C@@H](CCCCN)C(=O)NCC(=O)N[C@@H](C)C(=O)N[C@H](C(=O)N[C@H](C(=O)NCC(=O)N[C@@H](CC(C)C)C(=O)N[C@@H](CCCC)C(=O)N[C@H](C(=O)NCC(=O)NCC(=O)N[C@H](C(=O)N[C@H](C(=O)O)C(C)C)C(C)C)C(C)C)[C@@H](C)CC)[C@@H](C)CC [Nle3-VF] (H-QKL[NMeV]F[NMeF]AED[Nle][Nle][Nle]NKGAIIGL[Nle]VGGVV-OH)
Effect of addition to preformed fIAPP on fIAPP cytotoxicity (MTT reduction) (IAPP; RIN5fm cells, ACM 33 μM added to fIAPP […], 1 day, fIAPP 500 nM): does not affect fIAPP cytotoxicity
Effect on formation of cytotoxic IAPP assemblies (MTT reduction) (IAPP; RIN5fm cells, aged (24 h or 7 days) IAPP/peptide 1/2 solutions): fully suppressed; also recorded: suppress formation of toxic IAPP assemblies
IC50 (IAPP; read-out: IC50 (±SD) of inhibitory effects of ACMs on IAPP-mediated cell damage): 0.065 µM
IC50 (Aβ42 [1]): 0.367 µM
Effect of addition to preformed toxic Aβ42 oligomers on fibrillogenesis (ThT binding) (Aβ42 [3]; 2 h-aged Aβ42, 1/1): delay of fibrillogenesis
Effect of addition to already nucleated Aβ42 fibrillogenesis (ThT binding) (Aβ42 [3]; Aβ42 5 μM, post-nucleation addition): does not affect amounts of already formed ThT-positive fibrils
Effect of addition to TAMRA-oAβ42 on Aβ42 phagocytosis [4]: increased Aβ42 phagocytosis

Compound: CC[C@H](C)[C@H](NC(=O)[C@H](C)NC(=O)CNC(=O)[C@H](Cc1ccccc1)NC(=O)[C@H](CC(N)=O)NC(=O)[C@H](CC(N)=O)NC(=O)[C@H](CO)NC(=O)[C@H](CO)NC(=O)[C@H](Cc1c[nH]cn1)NC(=O)[C@@H](NC(=O)[C@H](CC(C)C)NC(=O)[C@H](Cc1ccccc1)NC(=O)[C@H](CC(N)=O)NC(=O)[C@H](C)NC(=O)[C@H](CC(C)C)NC(=O)[C@H](CCCNC(=N)N)NC(=O)[C@H](CCC(N)=O)NC(=O)[C@@H](NC(=O)[C@H](C)NC(=O)[C@@H]1CSSC[C@H](NC(=O)[C@@H](N)CCCCN)C(=O)N[C@@H](CC(N)=O)C(=O)N[C@@H]([C@@H](C)O)C(=O)N[C@@H](C)C(=O)N[C@@H]([C@@H](C)O)C(=O)N1)[C@@H](C)O)C(C)C)C(=O)N[C@@H](CC(C)C)C(=O)N[C@@H](CO)C(=O)N[C@@H](CO)C(=O)N[C@H](C(=O)N[C@@H](CC(N)=O)C(=O)N[C@H](C(=O)NCC(=O)N[C@@H](CO)C(=O)N[C@@H](CC(N)=O)C(=O)N[C@H](C(=O)N[C@@H](Cc1ccc(O)cc1)C(N)=O)[C@@H](C)O)C(C)C)[C@@H](C)O [IAPP]
Time to degradation by proteinase K (proteinase K): at least 30 h

Binding to fIAPP (dot blot) (fIAPP): bind fIAPP
Compound: QKL(N-Me)VF(N-Me)FAED - Val-Gly-Ser - NKGAIIGLNleVGGVV (H-QKL[NMeV]F[NMeF]AEDVGSNKGAIIGL[Nle]VGGVV-OH; SMILES CCCC[C@H](NC(=O)[C@H](CC(C)C)NC(=O)CNC(=O)[C@@H](NC(=O)[C@@H](NC(=O)[C@H](C)NC(=O)CNC(=O)[C@H](CCCCN)NC(=O)[C@H](CC(N)=O)NC(=O)[C@H](CO)NC(=O)CNC(=O)[C@@H](NC(=O)[C@H](CC(=O)O)NC(=O)[C@H](CCC(=O)O)NC(=O)[C@H](C)NC(=O)[C@H](Cc1ccccc1)N(C)C(=O)[C@H](Cc1ccccc1)NC(=O)[C@H](C(C)C)N(C)C(=O)[C@H](CC(C)C)NC(=O)[C@H](CCCCN)NC(=O)[C@@H](N)CCC(N)=O)C(C)C)[C@@H](C)CC)[C@@H](C)CC)C(=O)N[C@H](C(=O)NCC(=O)NCC(=O)N[C@H](C(=O)N[C@H](C(=O)O)C(C)C)C(C)C)C(C)C) [VGS-VF]
